Measured values as given in PMC2346451 (PLoS ONE, 2008).
Where two headings read alike, the source gives them in different places.

Key:
Format in all cases: cell-based
mouse TRPV4 (mTRPV4) = molecular target: T1, mouse TRPV4 (mTRPV4) (Mus musculus, UniProt Q9EPK8); assay: Whole-cell patch clamp of mouse TRPV4 expressed in HEK-293T cells; set-up: key to Agonist efficacy: Ø - not activated
T1 construct: expressed in transfected cells; host or cells: HEK-293T
Method: (§1) Transformed human embryonic kidney-293 (HEK-293T) cells were grown in Dulbecco's modified Eagle's medium (DMEM)+F-12 supplemented with 10% fetal calf serum, and 1% penicillin/streptomycin in 5% CO2 at 37°C. Cells grown to 90% confluence in 35 mm Petri dishes were transiently transfected with plasmid DNA encoding a TRP channel construct (1 µg). Rat TRPV1 (rTRPV1) was cloned into an enhanced green fluorescent protein-containing vector (pTracer-CMV2; Invitrogen, Carlsbad, CA). Chicken TRPV1 (cTRPV1), the chicken rat TRPV1 chimera (crcTRPV1), rat TRPV2 (rTRPV2), mouse TRPV3 (mTRPV3), mouse TRPV4 (mTRPV4), rat TRPM8 (rTRPM8), and rat TRPA1 (rTRPA1), were cloned into pcDNA3 and co-transfected with enhanced green fluorescent protein (0.1 µg) to follow expression. The cTRPV1 and crcTRPV1 clones were kindly provided by Dr. David Julius. Recordings were carried out 24–36 hours after transfection. Cells were split via trypsin EDTA, plated on glass coverslips at 5–10% confluence, and used 2–3 hours later.
(§2) Electrophysiological experiments were performed using the whole-cell patch-clamp technique at room temperature. Modified Ringer's solution with low chloride and nominal calcium contained (in mM): 130 sodium hydroxide, 5 potassium chloride, 1 magnesium chloride, 10 sodium 4-(2-hydroxyethyl)-1-piperazineethanesulfonic acid, 10 2-(N-morpholino)ethanesulfonic acid, and 20 glucose (pH 7.4; 310 milli-osmolar). […] 2 mM calcium chloride was included in the external solution where noted. To activate TRPV1, the modified Ringer's solution was made at pH 5 (low pH solution) and the chloride concentration was kept to a minimum to prevent contamination of the TRPV1 currents with acid-activated chloride currents. For recordings from heterologously expressing cells, the internal pipette solution contained (in mM): 125 cesium-Methanesulfonate, 10 cesium (1.2-bis(o-aminophenoxy)ethane-N,N,N',N'-tetraacetic acid, 8 sodium chloride, 4 magnesium adenosine triphosphate, and 10 HEPES (pH 7.2; 290 mOSM; nominal free calcium concentrations). For TRPA1 and dorsal root ganglion recordings, the internal pipette solution contained (in mM): 110 cesium-Methanesulfonate, 0.5 cesium4BAPTA, 8 sodium chloride, 0.2 calcium chloride, 4 magnesium-ATP, 4 sodium-GTP, and 10 4-(2-hydroxyethyl)-1-piperazineethanesulfonic acid (pH 7.2; 290 mOSM; 100 nM free calcium internal). MaxChelator was used to calculate the free calcium concentration (http://www.stanford.edu/cpatton/maxc.html).
Recordings were obtained using an Axopatch 200B amplifier, Digidata 1322A analog-to-digital converter, and pClamp 8.01 software (Molecular Devices, Union City, CA). Data were low-pass filtered at 2 kHz and digitized at 5 kHz. Borosilicate glass pipettes (World Precision Instruments, Sarasota, FL) were typically 3 MΩ pipette resistance after fire polishing. Cell capacitance was measured for each cell, and access resistance compensated to ∼80%. Recordings were begun ∼5 minutes after initial rupture to ensure initial steady state conditions. Current-voltage (I-V) relations were obtained using a ramp protocol. Voltage ramps (400 ms) from −100 to +40 or +100 mV were applied every 1–2 seconds and the holding potential was either −70 mV or 0 mV (see Figure Legends). A 40 ms step was added at the beginning and end of the ramp (i.e. at −100 mV, +40 mV or +100 mV). Liquid junction potentials were not corrected. […]

rat TRPV1 (rTRPV1) = rat TRPV1 (rTRPV1) (Rattus norvegicus, UniProt O35433); assay: Whole-cell patch clamp of rat TRPV1 expressed in HEK-293T cells; conditions: for Increase of agonist-evoked current prior to onset of inhibition: citral 1 mM, n = 8
Method: as §1, §2
Recordings were obtained using an Axopatch 200B amplifier, Digidata 1322A analog-to-digital converter, and pClamp 8.01 software (Molecular Devices, Union City, CA). Data were low-pass filtered at 2 kHz and digitized at 5 kHz. Borosilicate glass pipettes (World Precision Instruments, Sarasota, FL) were typically 3 MΩ pipette resistance after fire polishing. Cell capacitance was measured for each cell, and access resistance compensated to ∼80%. Recordings were begun ∼5 minutes after initial rupture to ensure initial steady state conditions. Current-voltage (I-V) relations were obtained using a ramp protocol. Voltage ramps (400 ms) from −100 to +40 or +100 mV were applied every 1–2 seconds and the holding potential was either −70 mV or 0 mV (see Figure Legends). A 40 ms step was added at the beginning and end of the ramp (i.e. at −100 mV, +40 mV or +100 mV). Liquid junction potentials were not corrected.
The dose response curves were fit with the Hill equation, where [drawing 8] and [A] is the concentration of agonist or blocker, N is the Hill coefficient, and KD is the [A] for Imeasured/Imax = 0.5. The term apparent dissociation constant is used in place of the half concentration of excitation and inhibition. […] Averaged data are presented as mean±standard error (S.E.) throughout. Statistical analysis included paired and unpaired Student's t-test comparisons of the data; p values are reported in the text.

[1] = molecular target: T2, rat TRPV1 tyrosine to alanine point mutant at residue 511 (Rattus norvegicus, UniProt O35433, Y511A); assay: Patch clamp of capsaicin-insensitive rat TRPV1 point mutant; conditions: data not shown
T2 construct: expressed in transfected cells; host or cells: HEK-293T (inferred from the general methods)
T2 sequence (O35433 whole entry Y511A): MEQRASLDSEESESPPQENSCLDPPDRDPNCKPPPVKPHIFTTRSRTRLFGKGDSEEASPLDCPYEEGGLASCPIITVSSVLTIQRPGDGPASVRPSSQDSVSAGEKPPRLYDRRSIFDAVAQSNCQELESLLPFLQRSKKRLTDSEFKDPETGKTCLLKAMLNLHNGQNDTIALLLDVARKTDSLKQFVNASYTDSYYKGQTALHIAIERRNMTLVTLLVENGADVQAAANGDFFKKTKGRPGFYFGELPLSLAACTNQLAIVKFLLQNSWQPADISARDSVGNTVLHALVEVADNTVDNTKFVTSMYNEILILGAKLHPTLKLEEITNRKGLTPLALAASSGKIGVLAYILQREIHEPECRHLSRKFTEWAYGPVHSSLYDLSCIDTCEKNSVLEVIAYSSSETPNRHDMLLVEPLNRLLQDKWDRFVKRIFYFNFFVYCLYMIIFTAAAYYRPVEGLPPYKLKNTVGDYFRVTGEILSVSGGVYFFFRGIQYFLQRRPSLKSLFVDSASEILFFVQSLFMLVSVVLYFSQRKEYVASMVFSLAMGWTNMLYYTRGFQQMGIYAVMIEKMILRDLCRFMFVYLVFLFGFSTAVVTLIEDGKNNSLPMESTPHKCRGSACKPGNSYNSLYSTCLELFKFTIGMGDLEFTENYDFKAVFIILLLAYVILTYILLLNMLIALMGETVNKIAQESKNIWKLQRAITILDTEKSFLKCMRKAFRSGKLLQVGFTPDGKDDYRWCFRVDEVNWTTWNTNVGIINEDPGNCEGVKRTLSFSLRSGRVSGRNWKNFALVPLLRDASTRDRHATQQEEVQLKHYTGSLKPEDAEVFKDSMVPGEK

Chain of rat TRPV1 (rTRPV1) (O35433 whole entry): as the sequence (O35433 whole entry Y511A) above, with A511Y counted along it
T1 sequence (Q9EPK8 whole entry): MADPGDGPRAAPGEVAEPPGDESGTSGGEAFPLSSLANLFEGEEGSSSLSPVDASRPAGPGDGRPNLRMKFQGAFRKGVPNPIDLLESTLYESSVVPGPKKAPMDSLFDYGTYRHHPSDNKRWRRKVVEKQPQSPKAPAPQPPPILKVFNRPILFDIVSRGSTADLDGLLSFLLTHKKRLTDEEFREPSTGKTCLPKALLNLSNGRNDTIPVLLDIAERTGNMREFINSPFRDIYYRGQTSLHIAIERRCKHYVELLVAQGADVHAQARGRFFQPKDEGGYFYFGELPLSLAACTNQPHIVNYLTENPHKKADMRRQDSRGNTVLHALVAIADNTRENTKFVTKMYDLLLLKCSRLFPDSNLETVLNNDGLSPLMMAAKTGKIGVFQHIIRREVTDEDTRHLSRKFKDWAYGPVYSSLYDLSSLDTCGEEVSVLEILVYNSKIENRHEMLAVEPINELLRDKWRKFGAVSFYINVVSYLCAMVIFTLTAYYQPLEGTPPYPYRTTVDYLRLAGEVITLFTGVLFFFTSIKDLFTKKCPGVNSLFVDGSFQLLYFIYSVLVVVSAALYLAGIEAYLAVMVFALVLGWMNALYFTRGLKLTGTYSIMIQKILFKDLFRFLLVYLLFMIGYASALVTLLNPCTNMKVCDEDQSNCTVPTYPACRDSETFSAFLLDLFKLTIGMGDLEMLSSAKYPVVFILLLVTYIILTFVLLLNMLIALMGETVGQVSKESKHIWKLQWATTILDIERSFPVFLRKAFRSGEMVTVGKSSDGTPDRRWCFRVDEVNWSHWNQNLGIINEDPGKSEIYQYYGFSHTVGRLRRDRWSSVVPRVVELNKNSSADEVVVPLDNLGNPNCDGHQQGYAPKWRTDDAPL

CC(C)=CCCC(C)=CC=O [citral, 3,7-dimethyl-2,6-octadienal]
Agonist efficacy (mouse TRPV4 (mTRPV4)): Ø
Reversibility of citral inhibition of agonist-evoked current (mouse TRPV4 (mTRPV4); 4α-phorbol-12, 13-didecanoate-evoked): rapidly reversed
Effect of citral addition on agonist-induced current (mouse TRPV4 (mTRPV4); 4α-phorbol-12, 13-didecanoate-induced, n = 9): not increased
Hill coefficient (inhibition) (mouse TRPV4 (mTRPV4); citral block of 4α-phorbol-12, 13-didecanoate-evoked current): 0.9
Kd (mouse TRPV4 (mTRPV4); read-out: Inhibition KD, app): 32 µM
Reversibility of citral inhibition of agonist-evoked current (rat TRPV1 (rTRPV1)): essentially irreversible
pH 5-evoked TRPV1 current remaining after citral washout (rat TRPV1 (rTRPV1); 30 seconds after citral washout, n = 5): 0.2±0.1%
Hill coefficient (activation) (rat TRPV1 (rTRPV1); +40 mV): 2.9
Increase of agonist-evoked current prior to onset of inhibition (rat TRPV1 (rTRPV1); +40 mV): 1.6±0.2 fold
Increase of agonist-evoked current prior to onset of inhibition (rat TRPV1 (rTRPV1); −100 mV): 1.8±0.3 fold
Kd (rat TRPV1 (rTRPV1); citral activation, +40 mV, nominal external calcium, read-out: Activation KD, app): 417 µM
Kd (rat TRPV1 (rTRPV1); citral activation, −40 mV, nominal external calcium, read-out: Activation KD, app): 465 µM
Hill coefficient (inhibition) (rat TRPV1 (rTRPV1); citral block of pH5-evoked current): 1.3
Kd (rat TRPV1 (rTRPV1); citral block of pH5-evoked current, read-out: Inhibition KD, app): 187 µM
Agonist efficacy IpH5/Icitral (1 mM) (rat TRPV1 (rTRPV1); fold larger, −40 mV, n = 3): IpH5/Icitral (1 mM) 28±8 fold larger (n = 3; −40 mV)
Time for >50% inhibition of peak TRP current in continued presence of citral (rat TRPV1 (rTRPV1); n = 9): ≤ 14 s
Hill coefficient (activation) (rat TRPV1 (rTRPV1); −40 mV): 2.7
Increase of inward ITRPV1 above baseline (rat TRPV1 (rTRPV1); −40 mV): 14 fold
Response of capsaicin-insensitive TRPV1 point mutant [1]: remained responsive to citral
